Square brackets hold non-standard residues; d marks the D form. Ends that are not written are not given here. Met(O) = CS(=O)CC[C@H](N)C(=O)O

This experiment has as its system mouse ADAMTS7. Put plainly: TMT10 TAILS N-terminomics, HUVEC experiment (process replicates, trypsin/AspN digest). Format: cell-based, human. The conditions noted are these: HUVEC TAILS HC; log fold change of N-terminal peptide, Ad-mADAMTS7 WT over EQ. The essentials: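 Full-length mouse ADAMTS7 (WT or E373Q mutant, C-terminal 3xFLAG) or luciferase was transduced via adenovirus, 50 MOI, into HCA-SMC (SMC1, SMC2) or HUVEC. SMC1: pooled media, technical triplicates 400 ug; SMC2: process triplicates 300 ug; HUVEC: process triplicates 200 ug, bFGF2 10 ng/ml.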
“ASMT_321 (LSSAGFR; listed as Homo sapiens)” registered a logFC.mWT.over.mEQ of 2.56.

For the substance “BICD1_280 (NNDDKMNGHIHGPLVKLNGDYR; listed as Homo sapiens)”, the logFC.mWT.over.mEQ stood at 1.31.

As for “CLU_267 (FQHPPTEFIR; listed as Homo sapiens)”, the logFC.mWT.over.mEQ was 1.64.

In turn, “CTGF_173 (TVVGPALAAYR; listed as Homo sapiens)” yielded a logFC.mWT.over.mEQ of 3.39.

“CTGF_174 (VVGPALAAYR; listed as Homo sapiens)” had a logFC.mWT.over.mEQ of 2.44.

For the substance “FN1_1624 (LVQTAVTTIPAPT; listed as Homo sapiens)”, the logFC.mWT.over.mEQ was 1.56.

As for “FN1_1743 (WESPQGQVSR; listed as Homo sapiens)”, the logFC.mWT.over.mEQ turned out to be 3.05.

Take “LTBP2_129 (QQQPAPR; listed as Homo sapiens)”: the logFC.mWT.over.mEQ is listed as 5.32.

Substance “LTBP2_253 (GEGTLAR; listed as Homo sapiens)” yielded a logFC.mWT.over.mEQ of 2.99.

On to “LTBP3_164 (LSTGALPPLAPEG; listed as Homo sapiens)”, for which the logFC.mWT.over.mEQ was found to be 2.21.

“LTBP3_205 (HAAFLVPLGPGQISA; listed as Homo sapiens)” showed a logFC.mWT.over.mEQ of 2.54.

In turn, “LTBP3_221 (VQAPPPVVNVR; listed as Homo sapiens)” showed a logFC.mWT.over.mEQ of 3.11.

With “MCFD2_55 (HLEGVINKPEA; listed as Homo sapiens)”, the logFC.mWT.over.mEQ came to 0.99.

On to “PSAP_301 (LVEPIKKH; listed as Homo sapiens)”, for which the logFC.mWT.over.mEQ is on record as 2.44.

Substance “PTBP1_376 (AAAAAGR; listed as Homo sapiens)” displayed a logFC.mWT.over.mEQ of 1.06.

In turn, “PZP_578 (HAHLQVAAAPQSLCALR; listed as Homo sapiens)” had a logFC.mWT.over.mEQ of 2.45.

For “THBS1_630 (FGQGVEHATANK; listed as Homo sapiens)”, the logFC.mWT.over.mEQ was 2.28.

Consider “UQCRH_76 (HGSPNNSERAMRAVGE[Met(O)]CKGPGAAR; listed as Homo sapiens)”, for which the logFC.mWT.over.mEQ was determined as 1.38.

Take “ZYX_244 (PVSLANTQPR; listed as Homo sapiens)”: the logFC.mWT.over.mEQ amounted to 1.02.

For the origin of these results see patent publication US20240368668A1, “SUBSTRATES AND BIOMARKERS OF ADAMTS7” (The Broad Institute, Inc., priority 2021, published 2024).
